According to DBAASP:
Converted amounts (≈) assume the structure as drawn.

Assays:
Experiment in all cases: ≥ marks a high value that may be exact or a test limit, other limits are often not marked, values filed in µg/mL are converted to µM
[1] = test system: Staphylococcus aureus ATCC 29213
[2] = test system: Escherichia coli ATCC 25922
Escherichia coli = test system: Escherichia coli
Pseudomonas aeruginosa = test system: Pseudomonas aeruginosa
Staphylococcus aureus = test system: Staphylococcus aureus
[3] = test system: Enterococcus faecalis ATCC 29212

SMILES | MIC [1] | MIC [2] | MIC (Escherichia coli) | MIC (Pseudomonas aeruginosa) | MIC (Staphylococcus aureus) | MIC [3]
CC(=O)N[C@@H](CC(C)C)C(=O)N[C@@H](CCCCN)C(=O)N[C@@H](CCCCN)C(=O)N[C@@H](CC(C)C)C(=O)N[C@@H](CC(C)C)C(=O)N[C@@H](CCCCN)C(=O)N[C@@H](CC(C)C)C(=O)N[C@@H](CC(C)C)C(=O)N[C@@H](CCCCN)C(=O)N[C@@H](CCCCN)C(=O)N[C@@H](CC(C)C)C(=O)N1CCC[C@H]1C(=O)N[C@@H](CCCCN)C(=O)N[C@@H](CC(C)C)C(N)=O [LKKLLKLLKKLPKL] | 10 µM (≈ 17.2 µg/mL) | 5 µM (≈ 8.59 µg/mL) | – | – | – | –
CC[C@H](C)[C@H](NC(=O)CN)C(=O)N[C@@H](C)C(=O)N[C@@H](CCCCN)C(=O)N[C@@H](Cc1ccccc1)C(=O)NCC(=O)N[C@@H](CCCCN)C(=O)N[C@@H](C)C(=O)N[C@@H](C)C(=O)N[C@@H](C)C(=O)N[C@@H](Cc1cnc[nH]1)C(=O)N[C@@H](Cc1ccccc1)C(=O)NCC(=O)N[C@@H](CCCCN)C(=O)N[C@@H](CCCCN)C(=O)N[C@@H](Cc1c[nH]c2ccccc12)C(=O)N[C@H](C(=O)NCC(=O)N[C@@H](CCC(=O)O)C(=O)N[C@@H](CC(C)C)C(=O)N[C@@H](CCSC)C(=O)N[C@@H](CC(N)=O)C(=O)N[C@@H](CO)C(N)=O)C(C)C [GIAKFGKAAAHFGKKWVGELMNS] | – | – | 75 µM (≈ 184 µg/mL) | > 75 µM | > 75 µM | –
CC(=O)N[C@@H](CC(C)C)C(=O)N[C@@H](CCCCN)C(=O)N[C@@H](CCCCN)C(=O)N[C@@H](CC(C)C)C(=O)N[C@@H](CC(C)C)C(=O)N[C@@H](CCCCN)C(=O)N[C@@H](CC(C)C)C(=O)N[C@@H](CC(C)C)C(=O)N1CCC[C@H]1C(=O)N[C@@H](CCCCN)C(=O)N[C@@H](CC(C)C)C(=O)N[C@@H](CC(C)C)C(=O)N[C@@H](CCCCN)C(=O)N[C@@H](CC(C)C)C(N)=O [LKKLLKLLPKLLKL] | 2.5 µM (≈ 4.26 µg/mL) | 5 µM (≈ 8.51 µg/mL) | – | – | – | –
CSCC[C@H](NC(=O)[C@H](CCCN=C(N)N)NC(=O)[C@H](Cc1c[nH]c2ccccc12)NC(=O)[C@H](CCC(N)=O)NC(=O)[C@H](Cc1c[nH]c2ccccc12)NC(=O)[C@H](CCCN=C(N)N)NC(=O)[C@H](CCCN=C(N)N)NC(=O)[C@H](C)NC(=O)[C@H](CCCCN)NC(=O)[C@@H](N)Cc1ccccc1)C(=O)O [FKARRWQWRM] | – | 34.2 µM (≈ 50.1 µg/mL) | – | – | – | 68.4 µM (≈ 100 µg/mL)
CC[C@H](C)[C@H](NC(=O)[C@H](Cc1ccccc1)NC(=O)[C@H](CO)NC(=O)[C@H](CCCCN)NC(=O)[C@H](Cc1c[nH]c2ccccc12)NC(=O)[C@@H](N)CCCCN)C(=O)N[C@@H](CCCCN)C(=O)N[C@@H](CCCCN)C(=O)N[C@@H](CO)C(=O)N[C@H](C(=O)N[C@@H](CO)C(=O)N[C@@H](CCCCN)C(=O)N[C@@H](Cc1ccccc1)C(=O)N[C@@H](CC(C)C)C(=O)N[C@@H](Cc1cnc[nH]1)C(=O)N[C@@H](CO)C(=O)N[C@@H](C)C(=O)N[C@@H](CCCCN)C(=O)N[C@@H](CCCCN)C(=O)N[C@@H](Cc1ccccc1)C(N)=O)[C@@H](C)O [KWKSFIKKSTSKFLHSAKKF] | – | – | – | 20.6 µM (≈ 50 µg/mL) | – | –
CC(=O)N[C@@H](CCCCN)C(=O)N[C@@H](CC(C)C)C(=O)N[C@@H](CC(C)C)C(=O)N[C@@H](CCCCN)C(=O)N[C@@H](CC(C)C)C(=O)N[C@@H](CC(C)C)C(=O)N[C@@H](CCCCN)C(=O)N[C@@H](CCCCN)C(=O)N1CCC[C@H]1C(=O)N[C@@H](CC(C)C)C(=O)N[C@@H](CCCCN)C(=O)N[C@@H](CC(C)C)C(=O)N[C@@H](CC(C)C)C(=O)N[C@@H](CCCCN)C(N)=O [KLLKLLKKPLKLLK] | > 80 µM | > 80 µM | – | – | – | –
CC[C@H](C)[C@H](NC(=O)CN)C(=O)NCC(=O)N[C@@H](CCCCN)C(=O)N[C@@H](Cc1ccccc1)C(=O)N[C@H](C(=O)N[C@@H](Cc1cnc[nH]1)C(=O)N[C@@H](CO)C(=O)N[C@@H](C)C(=O)N[C@@H](CCCCN)C(=O)N[C@@H](CCCCN)C(=O)N[C@@H](Cc1ccccc1)C(=O)NCC(=O)N[C@@H](CCCCN)C(=O)N[C@@H](CC(C)C)C(=O)N[C@@H](Cc1ccccc1)C(=O)N[C@H](C(=O)NCC(=O)N[C@@H](CCC(=O)O)C(=O)N[C@H](C(=O)N[C@@H](CCSC)C(=O)N[C@@H](CC(N)=O)C(=O)N[C@@H](CO)C(N)=O)[C@@H](C)CC)C(C)C)[C@@H](C)CC [GIGKFIHSAKKFGKLFVGEIMNS] | – | – | 26.9 µM (≈ 67.4 µg/mL) | 76 µM (≈ 191 µg/mL) | 38 µM (≈ 95.3 µg/mL) | –
